Laboratory results as given in patent publication US20130078194A1, “COMPOSITIONS FOR DENTAL TREATMENT COMPRISING LIPOTEICHOIC ACIDS OR PARTS THEREOF LIKE MONO- OR POLYGLYCERPHOSPHATES” (LUNAMED AG, priority 2010, published 2013).
Values joined by “and” are separate entries in the source; they are usually repeats but may differ in a detail not shown here. Equal values may be shown once.

Tested on: Streptococcus mutans
Assay: Tooth experiment: biofilm formation of Streptococcus mutans on pre-treated human incisors (Safranin staining, phase analysis of pictures)
Type: cell-based
Conditions: for % Area covered with bacteria: single pictures (4 per tooth), 3 days S. mutans; for % Mean area covered: mean of 4 pictures
Procedure: To investigate the influence of glycerol phosphate, polyglycerol phosphate and LTA-T on the biofilm formation of Streptococcus mutans on human teeth, incisors (1/condition) were preincubated under rotating conditions (50 rpm) at 37° C. for 1 h with: • 1. 5000 μg/ml glycerol phosphate in PBS • 2. 20000 μg/ml glycerol phosphate in PBS • 3. 277 μg/ml polyglycerol phosphate (PGP1) in PBS • 4. 1106 μg/ml polyglycerol phosphate (PGP1) in PBS • 5. 25 μg/ml LTA-T in PBS • 6. PBS as control
These teeth were then washed with ultrapure H2O by repetitive dipping (3 liquid air interfaces) and incubated in a saturated suspension of Streptococcus mutans (in BHI broth, 3% sucrose) under rotating conditions (50 rpm) at 37° C. for 3 days. Each day, bacteria were fed with 1 ml of a solution of 30% sucrose in PBS to enhance biofilm formation. After incubation, the teeth were washed with ultrapure H2O, air dried for 2 h and stained with Safranin (0.5% v/v) solution. The stained teeth were air dried and photographed (see above).
Of each tooth 4 representative pictures were taken. The pictures were analyzed with SigmaPlot Software, Version 11.0 using phase analysis: The color (phase) of the bacterial biofilm was defined and % area of the chosen color on each picture was calculated.
The difference between groups was compared using the unpaired t-test.

Row | SMILES | adhesion of bacteria compared to control tooth (pre-treatment 277 μg/ml) | % Area covered with bacteria (pre-treatment 277 μg/ml in PBS 1 h) | % Mean area covered (pre-treatment 277 μg/ml) [%] | adhesion of bacteria to the tooth surface (pre-treatment 1106 μg/ml) | decrease of biofilm formation compared to control tooth (pre-treatment 1106 μg/ml) | % Mean area covered (pre-treatment 1106 μg/ml) [%] | adhesion of bacteria compared to control tooth (pre-treatment 5000 μg/ml) | % Area covered with bacteria (pre-treatment 5000 μg/ml in PBS 1 h) | % Mean area covered (pre-treatment 5000 μg/ml) [%] | adhesion of bacteria compared to control tooth (pre-treatment 20000 μg/ml) | % Area covered with bacteria (pre-treatment 20000 μg/ml in PBS 1 h) [%] | % Mean area covered (pre-treatment 20000 μg/ml) [%]
1 | O=P(O)(OC[C@H](O)COP(=O)(O)OC[C@H](O)COP(=O)(O)OC[C@H](O)CO)OC[C@@H](O)COP(=O)(O)OC[C@@H](O)CO [PGP1] | significantly reduced | 1.93% and 0.19% and 0.08% and 0.40% | 0.65 | bacteria were still able to adhere to the tooth surface | still significant | 15.16 |  |  |  |  |  | 
2 | O=P(O)(O)OC(CO)CO [glycerol phosphate, beta glycerol phosphate] |  |  |  |  |  |  | significantly reduced | 0.00% and 0.02% | 0.00 | significantly reduced | 0.00 | 0.00
